From ChEMBL document CHEMBL2390930, “Design, synthesis and evaluation of 1,2-benzisothiazol-3-one derivatives as potent caspase-3 inhibitors” (Bioorg Med Chem, 2013)
pIC50: −log10 of the molar value.

biological target: T1, Caspase-3 (Homo sapiens, UniProt P42574); experiment: Inhibition of recombinant human caspase-3 using Ac-LDEVD-AMC as substrate assessed as accumulation of 7-AMC incubated for 10 mins followed by substrate addition measured for 10 mins by fluorimetric analysis
T1 sequence (P42574 whole entry): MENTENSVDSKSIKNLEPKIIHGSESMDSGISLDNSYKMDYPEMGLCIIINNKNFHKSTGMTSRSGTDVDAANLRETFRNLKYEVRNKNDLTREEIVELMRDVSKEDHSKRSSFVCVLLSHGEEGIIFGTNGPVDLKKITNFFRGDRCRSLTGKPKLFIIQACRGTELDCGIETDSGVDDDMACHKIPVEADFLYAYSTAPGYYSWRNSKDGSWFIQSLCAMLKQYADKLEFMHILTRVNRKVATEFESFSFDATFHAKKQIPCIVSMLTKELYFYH

Row | Compound | pIC50
1 | Cc1ccc(-n2sc3ccccc3c2=O)cc1 | 6.33
2 | Cn1sc2ccccc2c1=O | 4.37
3 | O=C(NCc1ccccc1)n1sc2ccccc2c1=O | 7.07
4 | O=C(Nc1ccc(I)cc1)n1sc2ccccc2c1=O | < 4.00
5 | O=c1c2ccccc2sn1-c1ccccc1 | 6.27
